Test results taken from patent publication US4358448A, “N-substituted thiazolyl derivatives of oxy-imino-substituted cephalosporins useful as anti-bacterial agents” (Farmitalia Carlo Erba S.p.A., priority 1979, dated 1982).

Tests used:
[1] = system: clinical isolates of indole-positive Proteus; test: antibacterial activity against clinical isolates of indole-positive Proteus relative to HR-756; format: cell-based; settings: in words
[2] = system: Bacteroides fragilis VPI 9032; test: antibacterial activity against Bacteroides fragilis relative to Cefotaxime; format: cell-based; settings: in words
streptococci = test: antibacterial activity against streptococci, relative to reference cephalosporin; format: cell-based
[3] = system: most Gram-negative bacteria; test: antibacterial activity against most Gram-negative bacteria, relative to reference cephalosporins; format: cell-based
[4] = approximate acute toxicity in the mouse, single intravenous administration; settings: in vivo, single intravenous administrations of increasing doses, measured on the seventh day
Excerpt: The toxicity of the compounds of the invention is quite negligible and therefore they can be safely used in therapy.

[5] = system: beta-lactamase producers organisms, such as Klebsiella aerogenes 1082 E, Enterobacter cloacae P 99, Escherichia coli Tem; test: antibacterial activity against beta-lactamase producers organisms; format: cell-based; settings: in words
[6] = system: Escherichia coli G, Klebsiella pneumoniae ATCC 10031, Proteus mirabilis ATCC 9921, Escherichia coli Tem., Haemophilus influenzae, Salmonella typhi Watson and …; test: in vivo tests in infected mice; settings: in words

## CO/N=C(\C(=O)N[C@@H]1C(=O)N2C(C(=O)O)=C(CSc3ccc4nnnn4n3)CS[C@H]12)c1csc(=N)n1O [FCE 20635, 7β-[2-(2-imino-3-hydroxy-4-thiazolinyl)-2-methoxyimino-acetamido]-3-[(tetrazolo[1,5-b]pyridazin-6-yl)-thiomethyl]-3-cephem-4-carboxylic acid (syn-isomer)]
[1]
  activity compared with HR-756: more active than HR-756
[2]
  activity compared with Cefotaxime: at least as active as Cefotaxime
streptococci
  times more active than Cefazolin: about 4 times
[3]
  times more active than Cefazolin: about 30 times
  times more active than Cefuroxime: about 40 times
[4]
  LD50 at 168 h: > 2000 mg/kg
[5]
  activity against most beta-lactamase producers organisms: high activity
[6]
  activity in vivo tests: high activity
